BindingDB's records for doi:10.1111/cbdd.12588 (Tehran University of Medical Sciences, 2015)

Legend:
[1] = biological target: Acetylcholinesterase (Electrophorus electricus, UniProt O42275); experiment: Cholinesterase Inhibition Assay; conditions: pH 8
Experimental: (§1) The target compounds were dissolved in a mixture of 1 mL DMSO and 9 mL methanol and diluted in 0.1 M KH2PO4/K2HPO4 buffer (pH 8.0) to obtain final concentrations.For each compound, five different concentrations were tested to obtain the range of 20-80% enzyme inhibition. The assay medium was composed of 3 mL of phosphatebuffer (0.1 M, pH 8.0), 100 µL of DTNB (0.01 M), 100 µL of enzyme solution (AChE or BuChE, 2.5 unit/mL), and 50 µL of test compound.

[2] = biological target: Carboxylic ester hydrolase (Equus caballus, UniProt Q9N1N9); experiment: Cholinesterase Inhibition Assay; conditions: pH 8
Experimental: as §1

Sequence of Carboxylic ester hydrolase (Q9N1N9 whole entry): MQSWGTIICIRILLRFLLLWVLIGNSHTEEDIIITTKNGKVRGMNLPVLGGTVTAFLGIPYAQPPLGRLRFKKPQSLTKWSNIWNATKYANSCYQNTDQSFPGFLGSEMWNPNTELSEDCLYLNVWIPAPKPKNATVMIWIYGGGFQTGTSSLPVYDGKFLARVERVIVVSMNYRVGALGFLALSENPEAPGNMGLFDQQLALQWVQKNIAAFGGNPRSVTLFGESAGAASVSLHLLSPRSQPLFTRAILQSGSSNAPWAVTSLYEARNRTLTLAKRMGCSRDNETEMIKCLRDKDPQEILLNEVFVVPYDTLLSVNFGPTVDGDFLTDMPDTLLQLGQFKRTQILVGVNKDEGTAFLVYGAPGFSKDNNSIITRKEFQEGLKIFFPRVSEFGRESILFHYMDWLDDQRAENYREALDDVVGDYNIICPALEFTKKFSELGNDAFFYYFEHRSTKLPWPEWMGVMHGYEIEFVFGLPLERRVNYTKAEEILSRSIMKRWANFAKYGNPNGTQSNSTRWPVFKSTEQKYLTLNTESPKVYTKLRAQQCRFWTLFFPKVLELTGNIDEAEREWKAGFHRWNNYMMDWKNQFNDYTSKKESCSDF
Sequence of Acetylcholinesterase (O42275 whole entry): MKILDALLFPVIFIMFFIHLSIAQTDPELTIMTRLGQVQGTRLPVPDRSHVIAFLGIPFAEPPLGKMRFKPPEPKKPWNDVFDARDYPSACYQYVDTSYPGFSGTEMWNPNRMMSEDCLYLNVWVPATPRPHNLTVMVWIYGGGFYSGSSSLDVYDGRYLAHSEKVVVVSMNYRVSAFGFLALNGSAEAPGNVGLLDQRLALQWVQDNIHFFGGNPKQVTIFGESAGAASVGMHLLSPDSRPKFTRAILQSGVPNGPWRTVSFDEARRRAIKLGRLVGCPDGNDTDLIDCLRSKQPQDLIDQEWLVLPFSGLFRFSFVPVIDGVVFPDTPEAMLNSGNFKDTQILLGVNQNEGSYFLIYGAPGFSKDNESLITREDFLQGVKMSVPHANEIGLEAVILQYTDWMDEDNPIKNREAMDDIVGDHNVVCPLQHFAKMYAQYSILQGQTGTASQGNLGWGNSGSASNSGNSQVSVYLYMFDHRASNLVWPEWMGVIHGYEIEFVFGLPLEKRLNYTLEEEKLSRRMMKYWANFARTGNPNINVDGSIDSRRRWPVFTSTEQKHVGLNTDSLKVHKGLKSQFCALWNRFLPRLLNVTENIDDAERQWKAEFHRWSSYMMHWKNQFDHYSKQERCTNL

| SMILES | IC50 [1] [µM] | IC50 [2] [µM] |
| --- | --- | --- |
| O=C(COc1cc(=O)oc2ccccc12)OCc1cn(Cc2ccccc2Br)nn1 [(1-(2-Bromobenzyl)-1H-1,2,3-triazol-4-yl)methyl 2-(2-oxo-2H-chromen-4-yloxy)acetate (8a)] | 2.14 | 43 |
| O=C(COc1cc(=O)oc2ccccc12)OCc1cn(Cc2ccccc2Cl)nn1 [(1-(2-Chlorobenzyl)-1H-1,2,3-triazol-4-yl)methyl 2-(2-oxo-2H-chromen-4-yloxy)acetate (8k)] | 0.18 | > 50 |
| O=C(COc1cc(=O)oc2ccccc12)OCc1cn(Cc2ccccc2F)nn1 [(1-(2-Fluorobenzyl)-1H-1,2,3-triazol-4-yl)methyl 2-(2-oxo-2H-chromen-4-yloxy)acetate (8h)] | 5.7 | > 50 |
| Cc1ccccc1Cn1cc(COC(=O)COc2cc(=O)oc3ccccc23)nn1 [(1-(2-Methylbenzyl)-1H-1,2,3-triazol-4-yl)methyl 2-(2-oxo-2H-chromen-4-yloxy)acetate (8f)] | 1.79 | > 50 |
| O=C(COc1cc(=O)oc2ccccc12)OCc1cn(Cc2ccccc2[N+](=O)[O-])nn1 [(1-(2-Nitrobenzyl)-1H-1,2,3-triazol-4-yl)methyl 2-(2-oxo-2H-chromen-4-yloxy)acetate (8n)] | 0.53 | > 50 |
| O=C(COc1cc(=O)oc2ccccc12)OCc1cn(Cc2cccc(Br)c2)nn1 [(1-(3-Bromobenzyl)-1H-1,2,3-triazol-4-yl)methyl 2-(2-oxo-2H-chromen-4-yloxy)acetate (8b)] | 1.79 | > 50 |
| O=C(COc1cc(=O)oc2ccccc12)OCc1cn(Cc2cccc(Cl)c2)nn1 [(1-(3-Chlorobenzyl)-1H-1,2,3-triazol-4-yl)methyl 2-((2-oxo-2H-chromen-4-yl)oxy)acetate (8l)] | 0.34 | > 50 |
| O=C(COc1cc(=O)oc2ccccc12)OCc1cn(Cc2cccc(F)c2)nn1 [(1-(3-Fluorobenzyl)-1H-1,2,3-triazol-4-yl)methyl 2-(2-oxo-2H-chromen-4-yloxy)acetate (8i)] | 1.64 | > 50 |
| COc1cccc(Cn2cc(COC(=O)COc3cc(=O)oc4ccccc34)nn2)c1 [(1-(3-Methoxybenzyl)-1H-1,2,3-triazol-4-yl)methyl 2-(2-oxo-2H-chromen-4-yloxy)acetate (8d)] | 7 | > 50 |
| O=C(COc1cc(=O)oc2ccccc12)OCc1cn(Cc2ccc(Br)cc2)nn1 [(1-(4-Bromobenzyl)-1H-1,2,3-triazol-4-yl)methyl 2-(2-oxo-2H-chromen-4-yloxy)acetate (8c)] | 87.9 | > 50 |
| O=C(COc1cc(=O)oc2ccccc12)OCc1cn(Cc2ccc(Cl)cc2)nn1 [(1-(4-Chlorobenzyl)-1H-1,2,3-triazol-4-yl)methyl 2-(2-oxo-2H-chromen-4-yloxy)acetate (8m)] | 13 | > 50 |
| O=C(COc1cc(=O)oc2ccccc12)OCc1cn(Cc2ccc(F)cc2)nn1 [(1-(4-Fluorobenzyl)-1H-1,2,3-triazol-4-yl)methyl 2-(2-oxo-2H-chromen-4-yloxy)acetate (8j)] | 2.54 | > 50 |
| COc1ccc(Cn2cc(COC(=O)COc3cc(=O)oc4ccccc34)nn2)cc1 [(1-(4-Methoxybenzyl)-1H-1,2,3-triazol-4-yl)methyl 2-(2-oxo-2H-chromen-4-yloxy)acetate (8e)] | 104 | > 50 |
| Cc1ccc(Cn2cc(COC(=O)COc3cc(=O)oc4ccccc34)nn2)cc1 [(1-(4-Methylbenzyl)-1H-1,2,3-triazol-4-yl)methyl 2-(2-oxo-2H-chromen-4-yloxy)acetate (8g)] | 90 | > 50 |
| O=C(COc1cc(=O)oc2ccccc12)OCc1cn(Cc2ccc([N+](=O)[O-])cc2)nn1 [(1-(4-Nitrobenzyl)-1H-1,2,3-triazol-4-yl)methyl 2-(2-oxo-2H-chromen-4-yloxy)acetate (8o)] | 137 | > 50 |
| O=C(COc1cc(=O)oc2ccccc12)OCc1cn(Cc2ccccc2)nn1 [(1-Benzyl-1H-1,2,3-triazol-4-yl)methyl 2-((2-oxo-2H-chromen-4-yl)oxy)acetate (8p)] | 15.8 | > 50 |
